Laboratory results as given in the METLIN SMRT retention time set (Domingo-Almenara et al. 2019).

Assay: gradient 5% acetonitrile 3 min, to 50% in 2 min, to 85% in 15 min, held 3 min, 100 µL/min
Conditions: column: Zorbax Extend-C18 2.1 x 50 mm; eluents: water / acetonitrile, 0.1% formic acid
Method in brief: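 Pure standards were analyzed in mixtures of ~100 molecules using HPLC coupled to a quadrupole time-of-flight mass spectrometer, in both positive and negative ionization mode. Separation used a Zorbax Extend-C18 column (2.1 × 50 mm, 1.8 μm) at 100 μL/min, with water and acetonitrile each containing 0.1% formic acid. Dead and dwell volumes were 40 μL and 900 μL, and data were collected over 3 months. Retention time was read from computationally picked adduct peaks, each inspected manually.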

Compared with CCOc1ccc(NC(=O)Nc2nccn(-c3cccc(F)c3)c2=O)cc1, CCOc1ccc(NC(=O)c2nc(C)oc2C)cc1 is lower in RP-LC retention time: 939 s for the first, 884 s for the second.

First: Cn1cccc1C(=O)N1CCC2(CC1)NC(=O)N(Cc1cccc(Cl)c1)C2=O
Second: O=C1NC2(CCN(C(=O)c3ccccc3)CC2)Nc2cc(Cl)ccc21
The RP-LC retention time of the first is higher: 821 s for the first, 729 s for the second.

First: O=C(NCc1ccc2c(c1)OCO2)C1CCN(C(=O)c2ccc(-c3noc(C4CC4)n3)cc2)CC1
Second: CC1(C(=O)NCc2ccc3c(c2)OCO3)CCCCC(=O)N1 (stereo not drawn)
The RP-LC retention time of the first is higher: 796 s for the first, 642 s for the second.

Going from O=C(Cn1c(=O)c(CCC(=O)NC2CCCC2)nc2ccccc21)Nc1ccc(F)cc1 to CCNC(=O)CCc1nc2ccccc2n(CC(=O)Nc2ccc(C(=O)OCC)cc2)c1=O, the RP-LC retention time falls from 808 s to 764 s.

First: COC(=O)c1ccccc1NC(=O)N1CCCn2nc(-c3cccn3C)cc21
Second: Cn1nc(C(=O)Nc2ccccc2)c2c1CCN(C(=O)Nc1cccc(Br)c1)C2
The RP-LC retention time of the first is higher: 958 s for the first, 914 s for the second.

Compared with CN(C)c1cc(-n2cnc(C(=O)Nc3ccc4c(c3)OCCO4)c2)ncn1, O=C(Nc1ccc2c(c1)OCCO2)Nc1ccc2nc3n(c(=O)c2c1)CCC3 is lower in RP-LC retention time: 755 s for the first, 654 s for the second.

First: O=C(NCCCN1CCCC1=O)C1c2ccccc2CC(=O)N1Cc1ccccc1 (stereo not drawn)
Second: COc1cccc(NC(=O)N2CCN(c3nc4ccccc4n3Cc3ccccc3)CC2)c1
The RP-LC retention time of the first is higher: 678 s for the first, 614 s for the second.

Compared with CCN(CC)C(C(=O)NC1CCCC1)c1cc2c(cc1[N+](=O)[O-])OCO2 (stereo not drawn), Cn1ccc2cc(C(=O)NC3CCCC3)ccc21 is higher in RP-LC retention time: 586 s for the first, 806 s for the second.

First: COc1ccc(-c2cn3c(CC(=O)Nc4ccccc4)csc3n2)cc1OC
Second: COc1ccc(-c2nc3ncccn3c2NCc2ccccc2)cc1OC
The RP-LC retention time of the first is higher: 702 s for the first, 682 s for the second.

First: COc1ccccc1N1CCN(C(=O)c2cc(S(=O)(=O)N3CCCCC3)cn2C)CC1
Second: O=C(c1nnc(-c2ccc(S(=O)(=O)N3CCCC3)cc2)o1)N1CCc2ccccc2C1
The RP-LC retention time of the first is lower: 893 s for the first, 980 s for the second.

Going from COc1cc(=O)c(C(=O)NC(C)C)nn1-c1ccc(F)cc1 to COc1ccc(N2CCN(Cc3cc(=O)c(OC)cn3CC(=O)NC(C)C)CC2)cc1, the RP-LC retention time falls from 686 s to 557 s.

Compared with COC(=O)c1cc(C)nc2c1c(=O)n(Cc1ccccc1F)c(=O)n2Cc1ccco1, COC(=O)Cn1c2ccc(F)cc2c2nc3ccccc3nc21 is lower in RP-LC retention time: 1070 s for the first, 658 s for the second.

First: CN1CCCCCCN(C(=O)Nc2ccc3c(c2)OCCO3)CCC1=O
Second: O=C(Cn1ccn2nc(-c3ccccc3)c(CO)c2c1=O)Nc1ccc2c(c1)OCCO2
The RP-LC retention time of the first is lower: 745 s for the first, 759 s for the second.

Compared with Cc1nnc(-c2cn(CC(=O)NCc3ccccc3Cl)c3ccccc23)o1, COc1ccccc1-c1noc(C2CCCN2C(=O)Nc2ccccc2Cl)n1 (stereo not drawn) is higher in RP-LC retention time: 821 s for the first, 947 s for the second.

First: O=C(O)c1ccc(Nc2c3ccccc3nc3ccccc23)cc1
Second: Clc1ccc(-c2nc(NCc3cccnc3)c3ccccc3n2)cc1
The RP-LC retention time of the first is higher: 629 s for the first, 601 s for the second.

Compared with CCCN1C(=O)c2c(C(=O)NCc3ccccc3C)ncn2CC1(C)C(=O)NCCC(C)C (stereo not drawn), CCCN1C(=O)c2cc(C(=O)NCc3ccc(F)cc3)nn2CC1(C)C(=O)NC1CCCC1 (stereo not drawn) is lower in RP-LC retention time: 883 s for the first, 824 s for the second.

First: CCN(C)C(=O)C1CN(C(=O)c2cccs2)CC1c1cccc(C(F)(F)F)c1 (stereo not drawn)
Second: O=C(c1cccs1)N1CCCC(c2ccnc(Nc3cccc(F)c3)n2)C1 (stereo not drawn)
The RP-LC retention time of the first is lower: 823 s for the first, 957 s for the second.

Going from CCCCc1nnc(NC(=O)C2CC(=O)N(CCc3c[nH]c4ccc(OC)cc34)C2)s1 (stereo not drawn) to COc1ccc(NC(=O)C2CCCN(c3nccnc3Sc3ccccc3)C2)c(OC)c1 (stereo not drawn), the RP-LC retention time rises from 766 s to 1060 s.

Going from CN(C)[C@@H]1CN(C(=O)c2ccc(Cn3cncn3)o2)CC[C@@H]1CO to O=C(Cc1ccccc1)N1CCC(Nc2cccn3ncnc23)CC1, the RP-LC retention time rises from 518 s to 713 s.

First: C#CCSc1n[nH]c(-c2ccco2)n1
Second: Cc1ccc(Cl)cc1NC(=O)N1CCC(n2c(-c3ccco3)nc3cccnc32)C1 (stereo not drawn)
The RP-LC retention time of the first is lower: 719 s for the first, 835 s for the second.

Going from Cc1sc(C)c(S(=O)(=O)N2CCN(c3ccccn3)CC2)c1-c1cc(C(F)(F)F)on1 to O=C(c1ccco1)N1CCN(S(=O)(=O)c2ccc(-c3cc(C(F)(F)F)on3)o2)CC1, the RP-LC retention time rises from 887 s to 951 s.

Compared with O=C(c1cc(C2CC2)n(CC(=O)N(Cc2ccccc2)c2ccccn2)n1)N1CCOCC1, CCN(CC)c1nc2cc(C(=O)N3CCN(c4ccccn4)CC3)ccc2c(=O)n1Cc1ccccc1 is higher in RP-LC retention time: 687 s for the first, 729 s for the second.

Compared with CCC(=O)N1CCc2c(sc3ncnc(N4CCCC4)c23)C1, COc1cccc(N2CCN(C(=O)C3CCCN(c4ncnc5c4nc4n5CCCCC4)C3)CC2)c1 (stereo not drawn) is lower in RP-LC retention time: 641 s for the first, 627 s for the second.

Compared with Cc1ccc(F)c(-n2nnc(C(=O)O)c2-c2ccncc2)c1, COc1ccc(C)cc1NC(=O)Cn1nc2cc(C)nc(-c3ccc(F)cc3)n2c1=O is higher in RP-LC retention time: 654 s for the first, 912 s for the second.

Going from COc1ccc(OC)c(S(=O)(=O)N2CCC(Cn3c(C)cnc3C)C2)c1 (stereo not drawn) to COc1ccc(OC)c(CNS(=O)(=O)c2cc(-c3nc(C)c(C)s3)sc2C)c1, the RP-LC retention time rises from 626 s to 1030 s.

First: CCCNC(=O)C1CCN(S(=O)(=O)c2ccc3c(c2)sc(=O)n3CCC)CC1
Second: CCOc1ccccc1NC(=O)C1CCN(S(=O)(=O)c2cc(-c3noc(C)n3)sc2C)CC1
The RP-LC retention time of the first is lower: 824 s for the first, 1010 s for the second.

Compared with O=C1c2ccccc2C(=O)N1CC(=O)N(Cc1ccccc1)c1cccc([N+](=O)[O-])c1, O=C(CCc1c(-c2ccc(Br)cc2)nc2ccccn12)NCc1ccc(F)cc1 is lower in RP-LC retention time: 916 s for the first, 701 s for the second.

First: CN(C)C(CNS(=O)(=O)/C=C/c1ccccc1)c1cn(C)c2ccccc12 (stereo not drawn)
Second: CNC(=O)C1Cc2ccccc2N1C(=O)c1ccccc1SC(F)F (stereo not drawn)
The RP-LC retention time of the first is lower: 602 s for the first, 715 s for the second.

Compared with O=C(C1CCCN(S(=O)(=O)c2cc(-c3noc(C4CCCC4)n3)cs2)C1)N1CCOCC1 (stereo not drawn), CCN1CCN(C(=O)C2CCc3sc(C(=O)N4CCCCC4)cc3C2)CC1 (stereo not drawn) is lower in RP-LC retention time: 966 s for the first, 613 s for the second.

Going from Cc1ccc(CCNC(=O)c2cc3n(n2)CC(C)(C(=O)NC2CCCC2)N(C)C3=O)cc1 (stereo not drawn) to CC1CCCN(c2ccn3c(=O)n(CC(=O)NCc4ccc(F)cc4)nc3n2)C1 (stereo not drawn), the RP-LC retention time falls from 809 s to 804 s.

Compared with CCOc1cc(=O)n2c(c1C(=O)Nc1cccc(SC)c1)CCCC2, N#Cc1ccc(C(=O)Nc2cccc(-c3nnc4n3CCCC4)c2)cc1 is lower in RP-LC retention time: 767 s for the first, 665 s for the second.

First: O=C(c1cc(C2CC2)[nH]n1)N1CCC(F)(F)C(COCC2CC2)C1 (stereo not drawn)
Second: O=C(NCC1CCN(c2ncccn2)CC1)c1cccc(C(F)(F)F)c1
The RP-LC retention time of the first is higher: 805 s for the first, 749 s for the second.

Going from COc1cc(CC(=O)N2CCc3cc(-c4cc(C)no4)ccc32)cc(OC)c1 to COC(=O)c1cc(OCC(=O)Nc2cccc(OC)c2)c2cc(OC)ccc2n1, the RP-LC retention time falls from 951 s to 811 s.

First: COc1ccccc1OCCNC(=O)CCc1nnc2c3cc(-c4ccc(F)cc4)nn3ccn12
Second: O=c1c2cnn(-c3ccc(Br)cc3)c2ncn1Cc1nc(-c2ccc(F)cc2)no1
The RP-LC retention time of the first is lower: 752 s for the first, 1150 s for the second.

Compared with Cc1nn(-c2ccc(C(=O)N3CCN(C(=O)c4ccco4)CC3)cc2)c2c1C(=O)CC(C)(C)C2, COc1ccc(N2CCN(C(=O)c3c(C)oc4nc(C)nc(N5CCCC5)c34)CC2)cc1 is lower in RP-LC retention time: 712 s for the first, 694 s for the second.

First: COCc1cc(=O)n(CC(=O)Nc2cccc(F)c2)c(N)n1
Second: CC(C)C(=O)Nc1ccc(-n2cnc(C(=O)NCc3ccc(F)cc3F)c2)nc1
The RP-LC retention time of the first is lower: 618 s for the first, 773 s for the second.

First: COC1CN(c2cccc(F)c2)C12CCN(Cc1ccc(F)c(F)c1)CC2 (stereo not drawn)
Second: O=S(=O)(c1c(F)cccc1F)N1CCC2(CC1)OCCS2
The RP-LC retention time of the first is lower: 785 s for the first, 860 s for the second.

First: Cc1ccc(C)c(-c2cc(C(N)=O)[nH]n2)c1
Second: Cc1ccc(-c2nc3ccccc3[nH]2)cc1NC(=O)CC(C)C
The RP-LC retention time of the first is higher: 695 s for the first, 656 s for the second.

Going from COc1ccc(-c2nnc(-c3cccc(S(=O)(=O)N4CCOCC4)c3)o2)cc1 to Cc1ccccc1NC(=O)C1CC(=O)N(c2ccc3c(c2)CCN3C(=O)C2CCC2)C1 (stereo not drawn), the RP-LC retention time falls from 868 s to 803 s.

First: Cn1c(=O)n(C)c2cc(N3CCCCC3)c(NC(=O)c3cccs3)cc21
Second: O=C(CN1C(=O)NC2(CCCCC2)C1=O)NCc1ccccc1Cl
The RP-LC retention time of the first is higher: 890 s for the first, 746 s for the second.

Going from COCCn1cc(CCNC(=O)Nc2ccc(Br)cc2F)c2cccnc21 to O=C(c1ccsc1)N1CCCn2cc(-c3ccccc3F)nc21, the RP-LC retention time falls from 834 s to 673 s.

Going from Cc1noc(C2(NC(=O)c3ccc(C(C)(C)C)cc3)CCCCC2)n1 to O=C(NCCc1ccncc1)C1CN(S(=O)(=O)c2ccccc2)CC12CCCCC2 (stereo not drawn), the RP-LC retention time falls from 1090 s to 641 s.

Going from c1ccc(-c2nnc3sc(-c4ccc5c(c4)OCO5)nn23)nc1 to Cc1ccc(CNC(=O)C2CCCN(c3cnc4nccnc4c3)C2)cc1C (stereo not drawn), the RP-LC retention time falls from 759 s to 722 s.

Compared with Cc1ccc2nc(-c3ccccc3F)c(Nc3c(C)cccc3C)n2c1, O=C1CC[C@@H](C(=O)N2CSC[C@H]2C(=O)O)N1 is lower in RP-LC retention time: 793 s for the first, 562 s for the second.
